Usually IC50 stands for the concentration at which inhibition is half-maximal. A higher IC50 goes with weaker potency.

For one assay, the target named is T1, Proteasome subunit beta type-5 (Homo sapiens, UniProt P28074).
T1 sequence (P28074 whole entry): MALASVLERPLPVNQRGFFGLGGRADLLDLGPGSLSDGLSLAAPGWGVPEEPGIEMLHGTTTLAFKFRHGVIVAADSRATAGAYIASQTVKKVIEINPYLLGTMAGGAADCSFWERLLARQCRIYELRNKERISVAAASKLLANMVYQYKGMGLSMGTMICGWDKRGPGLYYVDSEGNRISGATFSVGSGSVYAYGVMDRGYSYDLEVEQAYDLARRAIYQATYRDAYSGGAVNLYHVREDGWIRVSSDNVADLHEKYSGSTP
In words: Proteasome Activity Inhibition. As for the experimental part:
(§1) RPMI8226 cells, which is a multiple myeloma cell line, were cultured and then separated by a centrifuge, and washed twice with phosphate buffered saline (PBS). 20 mM of a tris-HCl (pH 8.0) buffer solution was added to the washed cells, and the cells were disrupted by a homogenizer and centrifuged to obtain S26 protein from the supernatant. Suc-Leu-Leu-Val-Tyr-AMC, for a fluorogenic substrate for the chymotrypsin-like activity of the proteasome, and Z-Leu-Leu-Glu-AMC, for a fluorogenic substrate for the caspase-like activity, were purchased from Calbiochem, EMD Millipore and used. Into each well of a 96-well plate (opaque, black round bottom), 20 ul of the S26 protein (final RPMI8226 cell extract concentration: 2 ug/well), 10 ul of S26 proteasome inhibitor serially diluted from 10 uM (final DMSO concentration: 0.5%), and 20 ul of the fluorogenic substrate for the proteasome chymotrypsin-like or caspase-like activity (final concentration: 20 uM) were added and mixed and allowed to react in a 37° C. incubator for 90 minutes. The fluorescence of the fluorogenic substrate was measured by FlexStation II Fluorometer (Molecular Devices). The fluorescence inhibited by the compound diluted at each concentration was measured as the relative percentage value for the amount obtained from the treatment only with the S26 protein and the fluorogenic substrate.
Take `COc1ccc(Cl)cc1-c1cccc(C2=NOC(Cc3ccccc3)(C(=O)N[C@@H](CC(C)C)B(O)O)C2)c1` (stereo partly drawn) [US12570675, Example 35]: the IC50 was < 500 nM.

In the case of `CC(C)C[C@H](NC(=O)C1CC(CNc2ccccn2)=NO1)B(O)O` (stereo partly drawn) [US12570675, Example 60], the IC50 was < 250 nM.

In the case of `CC(C)C[C@H](NC(=O)C1CC(CNC(=O)C2Cc3ccccc3C2)=NO1)B(O)O` (stereo partly drawn) [US12570675, Example 78], the IC50 was < 50 nM.

Consider `CC(C)C[C@H](NC(=O)C1CC(CNC(=O)C2CCCc3ccccc32)=NO1)B(O)O` (stereo partly drawn) [US12570675, Example 80], for which the IC50 is < 25 nM.

`CC(C)C[C@H](NC(=O)C1(Cc2ccccc2)CC(CNC(=O)c2cn(C(C)C)c3ccccc23)=NO1)B(O)O` (stereo partly drawn) [US12570675, Example 209]: the IC50 is < 10 nM.

Turning to `CC[C@H](NC(=O)C1(Cc2ccccc2)CC(CNC(=O)c2ccccc2)=NO1)B(O)O` (stereo partly drawn) [US12570675, Example 293], the IC50 is < 25 nM.

The next assay deals with T2, Proteasome subunit beta type-6 (Homo sapiens, UniProt P28072).
T2 sequence (P28072 whole entry): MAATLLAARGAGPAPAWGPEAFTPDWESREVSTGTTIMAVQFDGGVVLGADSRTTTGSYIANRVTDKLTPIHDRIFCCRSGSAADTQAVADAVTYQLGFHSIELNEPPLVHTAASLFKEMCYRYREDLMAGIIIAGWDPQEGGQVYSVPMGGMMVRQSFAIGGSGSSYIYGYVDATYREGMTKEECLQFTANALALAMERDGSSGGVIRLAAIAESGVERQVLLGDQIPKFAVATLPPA
The assay can be described thus: Proteasome Activity Inhibition. The procedure:
as §1
For the molecule `CC(C)C[C@H](NC(=O)C1CC(CNC(=O)C2CCCc3ccccc32)=NO1)B(O)O` (stereo partly drawn) [US12570675, Example 80], the IC50 was > 500 nM.

`CC[C@H](NC(=O)C1(Cc2ccccc2)CC(CNC(=O)c2ccccc2)=NO1)B(O)O` (stereo partly drawn) [US12570675, Example 293]: the IC50 was > 500 nM.

The record behind these values is BindingDB's records for patent US12570675 (LG Chem, 2026).
